In brackets after ≈: the same amount, converted by molar mass.
How the values were obtained:
human TrkA protein = human TrkA protein (Homo sapiens (Human), UniProt P04629); test: Evaluation on binding activity against human TrkA protein (TrkA LanthaScreen Eu Kinase Binding Assay); conditions: TrkA enzyme, Kinase Tracer 236, TR-FRET
Procedure: (Pharmacology Experiment 1): Evaluation on Binding Activity Against Human TrkA Protein
Measurements were made using TrkA LanthaScreen™ Eu Kinase Binding Assay (ThermoFisher SCIENTIFIC). Into 384 well plates (Corning), a 2.5 μL solution having each concentration of the test compound (1) diluted in Kinase buffer (ThermoFisher SCIENTIC) and a 2.5 μL having 15 nM TrkA enzyme (ThermoFisher SCIENTIFIC) were added. In addition, a 5 μL having 3 nM Eu-anti-His Tag […] (ThermoFisher SCIENTIFIC) and 5 μL having 30 nM Kinase™ Tracer 236 (ThermoFisher SCIENTIFIC) were added, and allowed to react at room temperature for 60 minutes. After the reaction, the fluorescence ratio was calculated as the binding amount of the test compound (1) with TrkA enzyme, by measuring the fluorescence intensity (Emission wavelength 615 nm) and TR-FRET (Emission wavelength 665 nm) of Europium by the excitation wavelength of 340 nm using EnVision 2100 (PerkinElmer). […]
The inhibitory activity of each crystal of the test compound (1), which is 1-((1R,2R)-2-hydroxy-4,4-dimethyl-1,2,3,4-tetrahydronaphthalen-1-yl)-3-(5-methyl-6-(2-methylpyrimidin-5-yl)-2-phenylpyridin-3-yl)urea can be assessed by IC50 value.

[1] = Determination of equilibrium solubility in phosphate buffer solution with pH 6.8; type: physicochemical; conditions: pH 6.8 phosphate buffer, 37° C., mean value of three measurements
From the text: (Test Example 1) Determination of Equilibrium Solubility (Determination of Solubility in Phosphate Buffer Solution with pH 6.8)
Each of the equilibrium solubilities (solubility in phosphate buffer solution with pH 6.8) of Type I (Example 2), III (Example 3), V (Example 4) and VI crystals (Example 5) of 1-((1R,2R)-2-hydroxy-4,4-dimethyl-1,2,3,4-tetrahydronaphthalen-1-yl)-3-(5-methyl-6-(2-methylpyrimidin-5-yl)-2-phenylpyridin-3-yl)urea obtained in the above (Example 2) to (Example 5) was determined as follows:
Water was added a weighed potassium dihydrogen phosphate of 2.7 g to make 100 mL volume to prepare 0.2 mol/L potassium dihydrogen phosphate solution. Water was added a weighed disodium hydrogen phosphate […] of 7.2 g to make 100 mL volume to prepare 0.2 mol/L disodium hydrogen phosphate solution. A pH 6.8 phosphate buffer solution was prepared by diluting a mixture of 0.2 mol/L potassium dihydrogen phosphate solution (14.8 mL) and 0.2 mol/L disodium hydrogen phosphate solution (10.0 mL) with water (173.6 mL).
Approximately 1 mg of the each crystal from (Example 2) to (Example 5) was weighed into a screw tube, and a pH 6.8 phosphate buffer solution (1 mL) was added. An isothermal shaker (M-BR-022UP) was used to incubate the sample at 37° C. and 1000 rpm for 24 hours. 100 μL solution were sampled at 1, 2, 6, and 24 hours after the start of incubation, and were filtered using a centrifuge (HITACHI, Himac cF 9RX, at 25° C., at 1500 rpm, for 30 seconds) with a filter (Millipore: Multiscreen, MSSLBPC10) so as to remove insoluble materials. A 20 μL of the filtrate was quantified, and diluted with a solution (180 μL, pH 9.0) of 20 vol % tetrahydrofuran and 80 vol % ammonium bicarbonate aqueous solution (10 mM). A 10 μL of the prepared solution was quantified, and diluted with a solution (190 μL, pH 9.0) of 20 vol % tetrahydrofuran and 80 vol % ammonium bicarbonate aqueous solution (10 mM). The prepared solution was analyzed by ultra performance liquid chromatography (UPLC) under the following measurement conditions, and the concentration of the compound in the solution was calculated based on a previously prepared calibration curve. Three times of measurements were made for each example compound, and the mean values and standard deviations of the three measurements are shown as a result in Table 6.
<UPLC measurement conditions> Equipment: ACQUITY UPLC H-Class (Waters) Detector: PDA (200-500 nm) Column: BEH C18 2.1×50 mm Measurement wavelength: 270 nm Column temperature: 40° C. Injection amount: 10 μL Mobile phase: • Solvent A, acetonitrile; • Solvent B, 10 mM ammonium bicarbonate aqueous solution (pH 9.0) Gradient conditions: […]

Storage stability test = type: physicochemical
Procedure: For the stability test, approximately 20 mg of the test sample was stored at 25° C./60% RH or at 40° C./75% RH in open or closed condition for 1 month using a small environmental tester SH-641 (manufactured by Espec), and changes in purity and in crystalline form were observed.
For purity measurement, equipment of Waters ACQUITY UPLC H-Class (manufactured by Waters) and column of Waters ACQUITY BEH C18 (particle diameter […], size 2.1×50 mm) are used. For the mobile phase, 10 mmol/L ammonium bicarbonate buffer pH 9.0 and acetonitrile were used; and the test sample solution at 100 μg/mL in the mixture solvent of THF (tetrahydrofuran):10 mmol/L ammonium bicarbonate buffer (20:80) was prepared.
(Test Example 2) Storage Stability Test
The type I (Example 2), III (Example 3), V (Example 4) and VI (Example 5) crystals (each about 20 mg) of 1-((1R,2R)-2-hydroxy-4,4-dimethyl-1,2,3,4-tetrahydronaphthalen-1-yl)-3-(5-methyl-6-(2-methylpyrimidin-5-yl)-2-phenylpyridin-3-yl)urea obtained in the above Examples 2 to 5 were stored in glass bottles under the respective conditions described in Table 7. After completion of the storage period, the retrieved sample was confirmed on the purity by high performance liquid chromatography and on the crystal form by powder X-ray diffraction analysis as in the Examples.

[2] = Photostability test according to ICH Q1B; type: physicochemical; conditions: for Stability against light: result in words
Procedure: (Test Example 3) Photostability Test
The type I (Example 2), III (Example 3), V (Example 4), and VI (Example 5) crystals (each about 20 mg) of 1-((1R,2R)-2-hydroxy-4,4-dimethyl-1,2,3,4-tetrahydronaphthalen-1-yl)-3-(5-methyl-6-(2-methylpyrimidin-5-yl)-2-phenylpyridin-3-yl)urea obtained in the above Examples 2 to 5 were placed in a transparent plastic container and covered, and were subjected to photostability test according to the ICH Q1B (Guidelines on Photostability Testing of New Active Substances and Medicinal Products) described in Table 8 (Here, the photostability test samples were stored at about 25° C. under separate lamps which respectively emits visible light and UV-A light so that the total light exposure should be 1.2 million lux hours and 200 W hours/m^2 or more, respectively. A 5-day study should be designated as “0.5 ICH” and a 10-day study as “1 ICH”). […] After completion of the test, the retrieved sample was confirmed on the purity by high performance liquid chromatography and on the crystal form by powder X-ray diffraction analysis as in the Examples.

[3] = Pharmacokinetic study, single oral dose in rats; type: in vivo; conditions: male Crl:CD (SD) rats, oral single dose 600 mg/kg in 0.5 w/v % methylcellulose 400
Procedure: (Pharmacology Experiment 5): Pharmacokinetic Study
Plasma sample obtained by centrifugation of blood (12000×g, for 5 minutes, at 4° C.) was measured to determine plasma concentration of the test compound using high performance liquid chromatography/mass spectrometry. Similarly, concentrations of standard solutions containing the test compound at known concentrations (0.001, 0.002, 0.005, 0.01, 0.02, 0.05, 0.1, 0.2, 0.5, 1, 2, and 5 μg/mL) were measured. And then, the plasma concentration (μg/mL) of the compound (1) was calculated from the prepared calibration curve to obtain the maximum plasma concentration (Cmax (μg/mL)) and the area under the plasma concentration-time curve (AUC (μg·hr/mL)). Measurement conditions can be appropriately adjusted by a person skilled in the art.

[4] = 25° C./60% RH, closed for 1 month
[5] = 25° C./60% RH, open for 1 month
[6] = 40° C./75% RH, closed for 1 month
[7] = 40° C./75% RH, open for 1 month
[8] = Shielded from light by aluminum foil, 0.5 ICH
[9] = Shielded from light by aluminum foil, 1 ICH
[10] = Shielded from light by aluminum foil, Before the test

Sequence of human TrkA protein (P04629 33-796): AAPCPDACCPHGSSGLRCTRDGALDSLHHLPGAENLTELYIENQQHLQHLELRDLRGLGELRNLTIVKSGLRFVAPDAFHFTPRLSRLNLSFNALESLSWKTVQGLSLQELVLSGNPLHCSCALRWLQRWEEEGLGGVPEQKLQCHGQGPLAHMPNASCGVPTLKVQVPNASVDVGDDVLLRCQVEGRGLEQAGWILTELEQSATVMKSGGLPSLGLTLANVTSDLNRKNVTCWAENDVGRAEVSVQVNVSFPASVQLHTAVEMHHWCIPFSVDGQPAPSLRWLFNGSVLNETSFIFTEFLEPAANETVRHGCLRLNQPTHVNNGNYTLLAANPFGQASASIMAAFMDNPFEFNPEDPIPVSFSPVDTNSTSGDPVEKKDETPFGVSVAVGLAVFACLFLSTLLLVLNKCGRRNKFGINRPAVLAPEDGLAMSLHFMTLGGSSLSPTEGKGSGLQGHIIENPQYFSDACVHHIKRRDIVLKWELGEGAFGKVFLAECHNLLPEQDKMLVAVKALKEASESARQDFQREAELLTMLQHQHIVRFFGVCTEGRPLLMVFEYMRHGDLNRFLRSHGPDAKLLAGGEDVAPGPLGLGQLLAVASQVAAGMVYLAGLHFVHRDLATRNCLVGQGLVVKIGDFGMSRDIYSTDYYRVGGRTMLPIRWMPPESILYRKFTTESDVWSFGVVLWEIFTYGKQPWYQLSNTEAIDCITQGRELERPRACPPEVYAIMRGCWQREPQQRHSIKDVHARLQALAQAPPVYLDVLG

Structure (SMILES)	Solubility [1]	Chemical purity (%) (Storage stability test; [4])	Crystalline form after completion of storage period (Storage stability test; [4])	Chemical purity (%) (Storage stability test; [5])	Crystalline form after completion of storage period (Storage stability test; [5])	Chemical purity (%) (Storage stability test; [6])	Crystalline form after completion of storage period (Storage stability test; [6])	Chemical purity (%) (Storage stability test; [7])	Crystalline form after completion of storage period (Storage stability test; [7])	Chemical purity (%) (Storage stability test; Before the test)	Crystalline form after completion of storage period (Storage stability test; Before the test)	Chemical purity (%) ([2]; Exposure, 0.5 ICH (5-day))	Crystalline form after completion of storage period ([2]; Exposure, 0.5 ICH (5-day))	Chemical purity (%) ([2]; Exposure, 1 ICH (10-day))	Crystalline form after completion of storage period ([2]; Exposure, 1 ICH (10-day))	Chemical purity (%) ([2]; Exposure, Before the test)	Crystalline form after completion of storage period ([2]; Exposure, Before the test)	Chemical purity (%) [2, 8]	Crystalline form after completion of storage period [2, 8]	Chemical purity (%) [2, 9]	also measured
Cc1ncc(-c2nc(-c3ccccc3)c(NC(=O)N[C@@H]3c4ccccc4C(C)(C)C[C@H]3O)cc2C)cn1 [Example 3, 1-((1R,2R)-2-hydroxy-4,4-dimethyl-1,2,3,4-tetrahydronaphthalen-1-yl)-3-(5-methyl-6-(2-methylpyrimidin-5-yl)-2-phenylpyridin-3-yl)urea]	66.0 µg/mL (≈ 134 µM)	100.00%	Type III crystal	100.00%	Type III crystal	100.00%	Type III crystal	100.00%	Type III crystal	100.00%	Type III crystal	100.0%	Type III crystal	100.0%	Type III crystal	100.0%	Type III crystal	100.0%	Type III crystal	100.0%	IC50 (human TrkA protein): ≤ 50 nM; Crystalline form after completion of storage period [2, 9]: Type III crystal; Chemical purity (%) [2, 10]: 100.0%; Crystalline form after completion of storage period [2, 10]: Type III crystal; Stability against light ([2]; listed as type III crystal): stable against light
Cc1ncc(-c2nc(-c3ccccc3)c(NC(=O)N[C@@H]3c4ccccc4C(C)(C)C[C@H]3O)cc2C)cn1 [Example 4, 1-((1R,2R)-2-hydroxy-4,4-dimethyl-1,2,3,4-tetrahydronaphthalen-1-yl)-3-(5-methyl-6-(2-methylpyrimidin-5-yl)-2-phenylpyridin-3-yl)urea]	60.1 µg/mL (≈ 122 µM)	99.8%	Type V crystal	99.8%	Type V crystal	99.8%	Type V crystal	99.8%	Type V crystal	99.8%	Type V crystal	99.8%	Type V crystal	99.8%	Type V crystal	99.9%	Type V crystal	99.9%	Type V crystal	99.9%	Area Under Plasma Concentration (AUC) [3]: 473 µg·h/mL; Maximum Plasma Concentration (Cmax) [3]: 26900 ng/mL; Moisture absorption (Storage stability test; during the storage period): no moisture absorption was observed; Chemical and physical stability over the test period (Storage stability test; storage for 1 month, result in words): chemically and physically stable; Crystalline form after completion of storage period [2, 9]: Type V crystal; Chemical purity (%) [2, 10]: 99.9%; Crystalline form after completion of storage period [2, 10]: Type V crystal; Stability against light ([2]; listed as type V crystal): stable against light
